{"source": "patent US20190328869A1", "about": "“IMMUNOTHERAPEUTIC PRODUCT AND MDSC MODULATOR COMBINATION THERAPY” (Transgene SA, priority 2016, published 2019)", "key": {"tumor-recruited MDSCs": {"tested_on": "tumor-recruited MDSCs", "details": "mouse tumor models; cited from earlier work"}, "HBV DNA (AAV2/8-HBV)": {"tested_on": "HBV DNA (AAV2/8-HBV)", "test": "Serum HBV DNA (viral load) by qPCR in HBV-persistent mice", "assay_type": "in vivo, C57BL/6J mice", "details": "sildenafil only 5, 20 or 80 mg/kg/day (groups b to d), over the experiment", "description": "(§1) Graph A illustrates the median level of HBsAg determined in the serum of groups of 10 mice (groups a to h) treated with sildenafil at 5 mg/kg/day (group b), at 20 mg/kg/day (group c), or at 80 mg/kg/day (group d) alone, or with AdTG18201 (group e) alone or with a combination of AdTG18201 and sildenafil (at 5, 20, or 80 mg/kg/day, groups f, g and h, respectively). The control group a is untreated. The Y-axis indicates the median HBsAg level (ng/mL) for each group and the X-axis the time (number of days post-AAV2/8-HBV injection). Graph B illustrates the median level of HBV DNA determined in the serum of the same groups of mice by PCR. […]\n(§2) The HBV persistent mice used in the study were described by Dion et al. (2013, J Virol, 87(10):5554-63). […] This allows the analysis of HBV-specific viral parameters (HBsAg, HBeAg, HBcAg and viremia) as well as immunological read-outs (ICS, ELISpot or humoral immune responses). […]\nHBV DNA copy number was determined in samples using the PrimerDesign™ Genesig Advanced Kit for Hepatitis B (ref. Path-HBV, PrimerDesign) and the 7500 real time system from Applied Biosystems. Data were analyzed using the 7500 System SDS software v2.0.6. […]\nThe Quantitect Multiplex PCR kit (ref. 204545, Qiagen) was used to carry out the qPCR reactions. […]\nThe limit of quantification (LOQ) was 100 DNA copies per reaction and the limit of detection (LOD) was 10 copies per reaction. […]"}, "melanoma": {"tested_on": "melanoma", "details": "melanoma bearing mice; cited from earlier work"}, "HBsAg (AAV2/8-HBV)": {"tested_on": "HBsAg (AAV2/8-HBV)", "test": "Serum HBsAg level by ELISA in HBV-persistent mice", "assay_type": "in vivo, C57BL/6J mice", "details": "monotherapy; sildenafil 5, 20 or 80 mg/kg/day D31-59; AdTG18201 D36, 43, 50; up to day 104", "description": "as §1, with “PCR. The Y-axis indicates the median HBV DNA level (copies/mL) for each group of animals and the X-axis the time (number of days post-AAV2/8-HBV injection).” for “PCR.”\nas §2\nHBsAg levels in mouse serum were assessed using a commercial ELISA kit (Monolisa HBsAg Ultra, Bio-Rad, France) according to the manufacturer's protocol, except that a standard curve was established, to render the test quantitative. […]"}}}
{"smiles": "CCCc1nn(C)c2c(=O)nc(-c3cc(S(=O)(=O)N4CCN(C)CC4)ccc3OCC)[nH]c12", "note": "[sildenafil, 1-[[3-(4,7-dihydro-1-methyl-7-oxo-3-propyl-1H-pyrazolo[4,3-d]pyrimidin-5-yl)-4-ethoxyphenyl]sulfonyl]-4-methylpiperazine]", "values": [{"measurement": "intratumoral T cell infiltration and activation", "setting": "tumor-recruited MDSCs", "value": "enhance intratumoral T cell infiltration and activation"}, {"measurement": "median level of viral DNA", "setting": "HBV DNA (AAV2/8-HBV)", "value": "around 10^5 copies/mL serum"}, {"measurement": "concentration of inflammatory mediators (IL-1β, IL-6, VEGF, GM-CSF, MCP-1) in melanoma lesions", "setting": "melanoma", "value": "significantly diminished"}, {"measurement": "tumor progression", "setting": "melanoma", "value": "delay tumor progression"}, {"measurement": "HBsAg median level, course", "setting": "HBsAg (AAV2/8-HBV)", "value": "no significant HBsAg decrease"}]}
